Measured values published in patent US20210338555A1, “COMPOSITION AND METHOD OF INHIBITING MINERALOCORTICOID RECEPTOR ACTIVITY BY APPLYING IT TO THE SKIN” (AMOREPACIFIC CORPORATION, priority 2018, published 2021).

Test system: mineralocorticoid receptor
Assay: MMTV-luciferase reporter assay of mineralocorticoid receptor activity in CV-1 cells
Type: cell-based
Settings: 10 μg/ml compound, after 2 hours dexamethasone (1 nM), cultivated 24 hours, FIG. 2
Description: RNA was separated from a CV-1 cell and PCR was performed using reverse transcriptase, so gene expressions of a glucocorticoid receptor (GR) and a mineralocorticoid receptor (MR) were confirmed, and the results are shown in FIG. 1.
The CV-1 cell was cultivated in a 24-well flat incubator. After 24 hours, the incubating medium was replaced with a 10% charcoal dextran-treated FBS-DMEM, and then after 4 hours, a mixing DNA of a MMTV-luciferase reporter plasmid and an internal Control Group of a pRL-SV-40 plasmid was transfected using TRANSFAST™ reagent (Promega). After 24 hours, it was treated with 10 μg/ml of the compound (INDOFINE Chemical Company, Inc.) represented by Chemical Formula 1-1, and after 2 hours, was treated with dexamethasone (1 nM), and then cultivated for 24 hours. The luciferase activity in the cell lysate was measured using a Dual-Luciferase Reporter Assay System (Promega), and the transfection efficiency was normalized by revising Renilla luciferase activity to measure a relative luciferase activity, and the results are shown in FIG. 2.

## O=c1c(-c2ccc(O)c(O)c2)coc2cc(O)ccc12 [Chemical Formula 1-1]
  relative luciferase activity (mineralocorticoid receptor activity induced by dexamethasone): deteriorated activity of the mineralocorticoid receptor
